This passage reports IC50 and IC90 results from ChEMBL document CHEMBL1135079, “CCR5 antagonists: bicyclic isoxazolidines as conformationally constrained N-1-substituted pyrrolidines” (Bioorg Med Chem Lett, 2002).

Test [1] deals with C-C chemokine receptor type 5 (Homo sapiens, UniProt P51681). Kind of test: Ability to displace [125I]-labeled MIP-1alpha from the C-C chemokine receptor type 5 expressed on CHO cell membranes.
In test [2] the test system is Human immunodeficiency virus 1. Nature of the test: Antiviral activity against BAL strain of HIV using HeLa cell anti-infectivity assay. To be noted: Human immunodeficiency virus 1, HeLa. Format: functional.

Bounds are passed on as bounds.

Sequence of C-C chemokine receptor type 5 (P51681 whole entry): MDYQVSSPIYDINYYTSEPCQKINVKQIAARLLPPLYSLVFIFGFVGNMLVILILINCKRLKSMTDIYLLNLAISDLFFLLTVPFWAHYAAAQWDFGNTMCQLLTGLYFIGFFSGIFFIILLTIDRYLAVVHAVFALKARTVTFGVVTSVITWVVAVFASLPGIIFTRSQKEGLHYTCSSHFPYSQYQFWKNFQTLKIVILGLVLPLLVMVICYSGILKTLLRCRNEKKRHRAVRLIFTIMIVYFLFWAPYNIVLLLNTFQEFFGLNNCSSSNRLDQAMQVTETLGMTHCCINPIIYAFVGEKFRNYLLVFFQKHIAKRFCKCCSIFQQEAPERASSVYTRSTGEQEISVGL

As usually defined, the IC50 is the point on the concentration scale where inhibition reaches its midpoint. The low end stands for higher potency, the high end for lower potency. As for `c1ccc(C2CCN(C[C@@H]3[C@@H](c4ccccc4)CN4OC5(CCCCC5)C[C@@H]34)CC2)cc1`, the IC50 in test [1] stood at 0.033 µM.
On to `c1ccc(C2CCN(C[C@H]3CN4OC5(CCCCC5)C[C@H]4[C@@H]3c3ccccc3)CC2)cc1`, for which the IC50 in test [1] was 0.043 µM.
Turning to `CCN(C(=O)OCc1ccccc1)C1CCN(C[C@H]2CN3O[C@H](c4ccccc4)C[C@H]3[C@@H]2c2ccccc2)CC1`, in test [1], the IC50 was around 0.027 µM.
In turn, `CCN(C(=O)OCc1ccccc1)C1CCN(C[C@@H]2[C@@H](c3ccccc3)CN3OC4(CCCCC4)C[C@@H]23)CC1` registered an IC50 in test [1] of 0.086 µM.
On the same count and under the same terms, with `c1ccc(C2CCN(C[C@H]3CN4O[C@H](c5ccccc5)C[C@H]4[C@@H]3c3ccccc3)CC2)cc1` the figure was 0.027 µM.
As usually defined, the IC90 is the concentration at which the effect reaches the 90% level. Low readings indicate greater potency, high ones weaker potency. In turn, `CCN(C(=O)OCc1ccccc1)C1CCN(C[C@H]2CN3OC4(CCCCC4)C[C@H]3[C@@H]2c2ccccc2)CC1` displayed a concentration for half-maximal inhibition (IC50) in test [1] of 0.005 µM. Moreover, in test [2], the concentration for an effect of 90% (IC90) was above 0.3 µM.
Take `C=CCN(C(=O)OCc1ccc([N+](=O)[O-])cc1)C1CCN(C[C@H]2CN(C(=O)C3CCCCC3)C[C@@H]2c2ccccc2)CC1`: the IC90 in test [2] turned out to be 0.004 µM.
`C=CCN(C(=O)OCc1ccc([N+](=O)[O-])cc1)C1CCN(C[C@@H]2[C@@H](c3ccccc3)CN3O[C@H](c4ccccc4)C[C@@H]23)CC1`: the IC50 in test [1] came to 0.006 µM. In test [2], this molecule came in with an IC90 above 0.3 µM.
On to `c1ccc(C2CCN(C[C@@H]3[C@@H](c4ccccc4)CN4O[C@H](c5ccccc5)C[C@@H]34)CC2)cc1`, for which the IC50 in test [1] was 0.03 µM.
Take `C=CCN(C(=O)OCc1ccc([N+](=O)[O-])cc1)C1CCN(C[C@@H]2[C@@H](c3ccccc3)CN3OC4(CCCCC4)C[C@@H]23)CC1`: the IC50 in test [1] was 0.014 µM.
For `C=CCN(C(=O)OCc1ccc([N+](=O)[O-])cc1)C1CCN(C[C@H]2CN3O[C@H](c4ccccc4)C[C@H]3[C@@H]2c2ccccc2)CC1`, the concentration for half-maximal inhibition (IC50) in test [1] worked out at 0.0025 µM. The 90% effect concentration (IC90) in test [2] is 0.3 µM.
In test [1], `C=CCN(C(=O)OCc1ccc([N+](=O)[O-])cc1)C1CCN(C[C@H]2CN3OC4(CCCCC4)C[C@H]3[C@@H]2c2ccccc2)CC1` came in with an IC50 of 0.00013 µM. In test [2], the IC90 came out at 0.033 µM.
For the molecule `c1ccc(CCCC2CCN(C[C@H]3CN4O[C@H](c5ccccc5)C[C@H]4[C@@H]3c3ccccc3)CC2)cc1`, the IC50 in test [1] was 0.005 µM. The molecule also showed a 90% effect concentration (IC90) in test [2] above 0.3 µM.
Molecule `CCN(C(=O)OCc1ccccc1)C1CCN(C[C@@H]2[C@@H](c3ccccc3)CN3O[C@H](c4ccccc4)C[C@@H]23)CC1` returned a half-inhibitory concentration (IC50) in test [1] of 0.046 µM.
`c1ccc(CCCC2CCN(C[C@@H]3[C@@H](c4ccccc4)CN4O[C@H](c5ccccc5)C[C@@H]34)CC2)cc1` came in with a concentration for half-maximal inhibition (IC50) in test [1] of 0.011 µM.
Take `c1ccc(CCCC2CCN(C[C@H]3CN4OC5(CCCCC5)C[C@H]4[C@@H]3c3ccccc3)CC2)cc1`: the IC50 in test [1] stood at 0.008 µM. In test [2], the concentration for an effect of 90% (IC90) is above 0.3 µM.
